# From PubChem BioAssay AID179 (DTP/NCI, 2004)
# Activity calls are given as the source filed them.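 Rule for the calls: active = compounds giving half or more protection of infected cells from virus-caused growth loss, again on retest; inactive = the rest.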
# Test system: CEM cells HIV-1 protection, formazan growth assay
# Assay: NCI AIDS Antiviral Assay
# Conditions: for IC50: measured here: growth of uninfected CEM cells
# Summary of the method: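 Human CEM cells, uninfected and HIV-1-infected, received five drug concentrations, and growth was read by soluble formazan assay. Compounds giving at least 50% protection were retested; reproducible 100% protection defined confirmed active.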
Structure (SMILES),EC50 [µM],IC50 [µM],outcome
CC[C@]1(Cc2ccc(OC)c(OC)c2)C=[N+]([O-])O[C@H](OC2CCCC2(c2ccccc2)c2ccccc2)[C@@H]1OC(=O)c1ccccc1 (some centres undefined),> 200,1.07,
CCN1CCC(O)(c2ccccc2)C(C(=O)c2ccccc2)C1 (centres undefined),> 646,33.9,
C1CC[C@H]2SSC3CCCC[C@H]3SSC2C1 (some centres undefined),> 17.8,> 17.8,
CCCCCCCCCCCCOC1OC(CO)C(O)C(O)C1O (centres undefined),> 85.1,38,
CN(C)P1(=O)NCC(C(C)(C)C)CO1 (centres undefined),> 562,> 562,
COC(=N)C(C)C,> 1820,> 1820,
O=c1[nH]c(-c2ccccc2)nc2cc(Cl)ccc12,,,inactive
CCc1ccccc1NC(=O)CCc1n[nH]c(=S)o1,44.7,67.6,
N[C@H]1C2C3CC4C5CC(C42)C1(c1ccccc1)C53 (some centres undefined),> 661,53.7,
Cn1c(O)c(N=NC(=O)Cc2c[nH]c3ccccc23)c2ccccc21,> 200,> 200,
CC(CO)CS(=O)(=O)O (centres undefined),> 200,> 200,
CCSCC1OC2OC3C(CSCC)OC(OC4C(CSCC)OC(OC5C(CSCC)OC(OC6C(CSCC)OC(OC7C(CSCC)OC(OC8C(CSCC)OC(OC1C(OS(=O)(=O)O)C2OS(=O)(=O)O)C(OS(=O)(=O)O)C8OS(=O)(=O)O)C(OS(=O)(=O)O)C7OS(=O)(=O)O)C(OS(=O)(=O)O)C6OS(=O)(=O)O)C(OS(=O)(=O)O)C5OS(=O)(=O)O)C(OS(=O)(=O)O)C4OS(=O)(=O)O)C(OS(=O)(=O)O)C3OS(=O)(=O)O (centres undefined),2.75,50.1,
O=C(N/N=C/c1ccc(Cl)cc1)c1ccccc1Nc1ccccc1C(=O)N/N=C/c1ccc(Cl)cc1,55,> 200,
CCCCCCCCCCCCCC1=NCC(C)(C)N1,> 93.3,20.4,
O=C(NCCCCCCCCNC(=O)c1cnc2ccccc2n1)c1cnc2ccccc2n1,> 398,56.2,
CC1OC(OC2C(O[C@H]3CC[C@@]4(C)C(=CC[C@H]5[C@@H]6C[C@@H]7O[C@](O)(CC[C@@H](C)COC8OC(CO)C(O)C(O)C8O)[C@@H](C)[C@@H]7[C@@]6(C)CC[C@@H]54)C3)OC(CO)C(O)C2OC2OC(CO)C(O)C(O)C2O)C(O)C(O)C1O (some centres undefined),> 100,2.51,
NNC(=O)C1C(C(=O)NN)C2C3C=CC(C4C(=O)NC(=O)C34)C12 (centres undefined),> 200,> 200,
O=c1c2cccnc2cc(-c2ccccc2)n1CCO,> 200,> 200,
CCCCN1C(=O)c2cc(=O)[nH]c(O)c2C1C (centres undefined),> 1050,676,
C=CCN(c1cc(OC)c2[nH]cc(C)c2c1[N+](=O)[O-])S(C)(=O)=O,97.7,> 100,
C[C@H]1OC(=O)[C@@H]2N=NN(Cc3ccccc3)[C@H]12,,,inactive

Structure (SMILES),EC50 [µM],IC50 [µM],outcome
CCC[CH2][Sn]1([CH2]CCC)[O]C(=O)c2cccc(C)c2[O]1,,,inactive
O=C(CCSCCC(=O)NNc1ccccc1)NNc1ccccc1,> 20,> 20,
CC(C)N(CCCNc1c2ccccc2nc2cccc([N+](=O)[O-])c12)C(C)C,> 200,0.0631,
O=C1C=CC(=O)c2c(O)ccc(O)c21,> 200,3.89,
COc1cc2c(cc1OC)C1OC(c3cc(OC)c(OC)cc3C1OC(C)=O)C2OC(C)=O (centres undefined),> 50.1,> 50.1,
CCOC(=O)c1[nH]cc(C)c1-c1ccc2c(-c3ccccc3)nc3ccccc3n12,> 200,3.16,
Cc1c2ccccc2nc(CSc2ccc(Cl)cc2)[n+]1[O-],45.7,105,
COC1=CC(=O)C(OC)=C(C2C(=O)N(C)c3ccccc32)C1=O (centres undefined),> 200,61.7,
COc1ccc(/C=C2\CN(C)C/C(=C\c3ccc(OC)cc3)C2=O)cc1,> 200,85.1,
CC(C)CC1=CC(=O)CN(CCc2c[nH]c3ccccc23)C1,> 240,126,
CC(C)C(Sc1nc(-c2ccccc2)c(-c2ccccc2)[nH]1)C(=O)N/N=C/c1ccc(Cl)cc1 (centres undefined),> 74.1,> 74.1,
O=c1[nH][nH]c(=O)n1Cc1ccccc1,> 200,> 200,
CCOC(=O)/C=C/c1nc(C#N)c(N)o1,> 200,102,
COc1cccc2c1OC(c1ccc(C#N)cc1)C([N+](=O)[O-])=C2 (centres undefined),> 200,1.58,
Cc1cc(C)c2c(c1)CC2NC(=O)Cc1ccccc1 (centres undefined),> 26.9,> 26.9,
CC(C)(O)[C@@H]1CCC(C)([C@H]2[C@@H](O)CC3(C)C4CC(OC5OC(CO)C(O)C(O)C5O)C5C(C)(C)[C@@H](OC6OCC(O)C(O)C6O)CC[C@@]56C[C@@]46CC[C@]23C)O1 (some centres undefined),> 120,> 120,
COC(=O)C1=C(c2ccccc2)ON2C(C)(C)COC12C (centres undefined),> 200,> 200,
FC(F)(Sc1ncccn1)c1nc2ccccc2o1,19.5,102,
CN(CC(=O)O)S(=O)(=O)c1ccc2ccccc2c1,,,inactive
CCCOC(=O)Nc1ccc2c(c1)c1c3[nH]c(=O)c4cccn4c3ccc1n2CC,> 200,> 200,
CCOC(=O)c1c(N2CCOCC2)[nH]c(=O)c(C(c2c(O)c(C(=O)OCC)c(N3CCOCC3)[nH]c2=O)C(C)C)c1O,> 200,> 200,

Structure (SMILES),EC50 [µM],IC50 [µM],outcome
Nc1ncnc2c1ncn2CC(=O)NCCO,> 200,> 200,
O=C1C2=Nc3ccccc3C(O)(C(=O)O)N2c2ccccc21 (centres undefined),> 200,16.6,
Oc1ccc(/C=N/c2nccs2)c(O)c1,> 200,138,
N#CC1(C#N)C(C#N)(C#N)C1(C#N)C(N)=O,> 200,> 200,
O=C1C=CC(=O)c2c(O)c3c(c(O)c21)C[C@H](O)[C@H](O)[C@@H]3O,> 269,0.389,
C=C[C@@H]1c2ccccc2C=C[C@]1(CCC1(C)OCCO1)C1=NC(C)(C)CO1,> 70.8,> 70.8,
Cc1cc(=O)c2cc3nc(-c4cccnc4)oc3c(Br)c2o1,182,> 200,
CCOC(=O)c1ccc(N2C(=O)/C(=C/c3ccc(N(CCC#N)CCC#N)cc3)N=C2c2cc([N+](=O)[O-])ccc2Cl)cc1,> 12,> 12,
COc1cc(C)c2c(c1C=O)Oc1c(c(C)c(O)c3c1C(O)OC3=O)OC2=O (centres undefined),> 93.3,53.7,
C=CCCC(CCC=C)(C(=O)O)C(=O)O,> 1170,> 1170,
COc1ccccc1N/N=c1\c2nc3ccccc3nc1n(-c1ccccc1C)c(=S)n2-c1ccc(Cl)cc1,> 200,178,
COc1cccc(N2C(Cl)C(=O)C2c2c[nH]c3ccccc23)c1 (centres undefined),> 79.4,> 79.4,
Cc1cn([C@H]2C[C@@H]3[C@@H](COC(CC[Se]C#N)N3O)O2)c(=O)[nH]c1=O (some centres undefined),3.98,28.8,
CC[N+]1(C)CCC(O)(c2ccc(OC)cc2)C(C(=O)c2ccc(OC)cc2)C1 (centres undefined),> 200,10.2,
CCCSS/C(CCO)=C(\C)N(C=O)Cc1cnc(C)nc1N,> 200,10.5,
Cc1cc2c(C(C)C)c(O)c(O)c(C=NCCc3ccccc3)c2c(O)c1-c1c(C)cc2c(C(C)C)c(O)c(O)c(C=NCCc3ccccc3)c2c1O,> 200,8.71,
Cc1ccc2nc(NC(=O)/C(Cc3nc4ccc(Cl)cc4[nH]c3=O)=N\NC(C)(C)C)sc2c1,> 74.1,> 74.1,
Brc1ccc(N2N=NC3CNCC32)cc1 (centres undefined),> 26.9,> 26.9,
COc1ccc(CCN(C)CCCC(C#N)(c2ccc(OC)c(OC)c2)C(C)C)cc1OC (centres undefined),> 200,> 200,
Clc1nncc2sc(-c3ccccc3)nc12,> 151,8.32,
NC(N)=NS(=O)(=O)c1ccc(NC(=O)c2cccc3c(Nc4ccc(S(N)(=O)=O)cc4)c4ccccc4nc23)cc1,> 43.7,> 43.7,

Structure (SMILES),EC50 [µM],IC50 [µM],outcome
CCOC(CCc1c(C)nc(NC(C)=O)[nH]c1=O)OCC,> 200,> 200,
O=c1c(-c2ccc(O)c(O)c2)coc2cc(O)cc(O)c12,> 200,15.8,
O=C(O)c1ccc(CSc2ccccc2C(=O)O)c([N+](=O)[O-])c1,> 759,> 759,
C/C=C(/CCCCOC1CCCCO1)[Si](C)(C)C (centres undefined),,,inactive
O=c1c2ccccc2oc2ccccc12.[Cl][Hg][Cl],> 11.2,> 11.2,
Cc1cn(CCCCCOC(=O)NC(CCCN=C(N)N)C(=O)O)c(=O)[nH]c1=O (centres undefined),> 200,18.2,
Cc1ccc([N+](=O)[O-])cc1NC(=O)C(=O)C(C(=O)c1ccccc1F)C1OC(=O)c2ccccc21 (centres undefined),> 275,8.32,
CN1CCN=C1c1ccc(NC(=O)Nc2ccc(NC(=O)Nc3ccc(C4=NCCN4C)cc3)cc2)cc1,> 200,38.9,
N#Cc1c(=O)n(O)c2ccccc2[n+]1[O-],> 200,> 200,
COC(=O)c1ccc(CCC2=CC(=O)C=CC2=O)cc1,> 200,7.59,
O=C1NS(=O)(=O)NC1(c1ccccc1)c1ccccc1,,,inactive
COC(=O)c1ccccc1C1CN=NC12Cc1c(C)cc(C)cc1C2=O (centres undefined),> 174,28.2,
CCOC(=O)CCC(NC(=O)c1ccc(OCc2ccc3nc(-c4ccccc4)c(Cl)nc3c2)cc1)C(=O)OCC (centres undefined),> 200,43.7,
N#Cc1nc(Nc2ccc(Cl)cc2)sc1N,> 525,9.77,
c1ccc2c(c1)nnn1c3ncccc3nc21,> 58.9,23.4,
NC(CCCCCC(N)C(=O)O)C(=O)O (centres undefined),,,inactive
COc1ccccc1NC(=O)C(=O)C(C(=O)c1ccccc1F)C1OC(=O)c2ccccc21 (centres undefined),> 288,20.9,
COCN1C(=O)CN=C(c2ccccc2)c2cc(NO)ccc21,16.2,21.9,
CCOC(=O)c1c(-c2ccccc2)oc(-c2ccccc2)c1C(=O)OCC,,,inactive
O=[N+]([O-])C(=C(Sc1ccccc1)Sc1ccccc1)C(Cl)=C(Cl)Cl,,,inactive
COc1ccc2nc3cc([N+](=O)[O-])ccc3c(NNc3ccc(Cl)cc3)c2c1,> 200,33.1,
